The test deals with human VR1 (Homo sapiens, UniProt Q8NER1). Briefly: Acid stimulation assay (acid-induced intracellular calcium change, FDSS 6000). The test is classed as cell-based. The conditions noted are these: final assay buffer pH5.8, 15 min pre-incubation, read-out: IC50 (nM) Low pH. An excerpt: VR1 antagonistic activity can be determined by the Ca^2+ imaging assay using human VR1 highly expressing cells. The cells that highly express human VR1 receptors are obtainable from several different conventional methods. The one standard method is cloning from human Dorsal Root Ganglion (DRG) or kidney according to the methods such as described in the journal article; Nature, 389, pp 816-824, 1997. Alternatively VR1 receptors highly expressing human keratinocytes are also known and published in the journal article (Biochemical and Biophysical Research Communications, 291, pp 124-129, 2002). […] Furthermore, the method to up regulate human VR1 gene, which is usually a silent gene or don't produce detectable level of VR1 receptors, is also available to obtain propriety cells. Such genetic modification method was described in detail; Nat. Biotechnol., 19, pp 440-445, 2001.
Chain of human VR1 (Q8NER1 whole entry): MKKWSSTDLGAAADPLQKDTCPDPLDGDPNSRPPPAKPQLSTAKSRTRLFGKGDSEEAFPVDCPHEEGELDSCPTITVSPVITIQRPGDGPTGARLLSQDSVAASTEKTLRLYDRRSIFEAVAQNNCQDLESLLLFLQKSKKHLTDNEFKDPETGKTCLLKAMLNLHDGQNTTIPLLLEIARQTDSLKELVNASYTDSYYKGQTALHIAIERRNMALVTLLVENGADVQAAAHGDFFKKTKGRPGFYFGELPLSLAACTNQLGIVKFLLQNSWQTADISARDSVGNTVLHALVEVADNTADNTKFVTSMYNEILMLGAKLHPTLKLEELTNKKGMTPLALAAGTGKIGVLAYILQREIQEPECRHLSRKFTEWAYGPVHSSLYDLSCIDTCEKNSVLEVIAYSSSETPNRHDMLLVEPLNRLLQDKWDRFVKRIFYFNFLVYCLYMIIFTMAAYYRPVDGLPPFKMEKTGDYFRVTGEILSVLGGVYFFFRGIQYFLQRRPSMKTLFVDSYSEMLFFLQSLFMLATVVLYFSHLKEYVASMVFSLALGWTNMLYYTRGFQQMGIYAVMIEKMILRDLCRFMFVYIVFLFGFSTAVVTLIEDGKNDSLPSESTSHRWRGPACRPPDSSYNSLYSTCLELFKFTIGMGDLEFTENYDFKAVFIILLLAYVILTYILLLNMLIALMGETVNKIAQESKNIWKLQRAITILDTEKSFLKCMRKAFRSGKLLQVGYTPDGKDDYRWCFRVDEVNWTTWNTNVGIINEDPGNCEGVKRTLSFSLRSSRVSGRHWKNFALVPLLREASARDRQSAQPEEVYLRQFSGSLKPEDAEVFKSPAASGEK
The cells that express human VR1 receptors were maintained in culture flask at 37° C. in an environment containing 5% CO2 until use in the assay. The intracellular Ca^2+ imaging assay to determine VR1 antagonistic activities were done by following procedures.
The culture medium was removed from the flask and fura-2/AM fluorescent calcium indicator was added to the flask at a concentration of 5 μM in the medium. The flask was placed in CO2 incubator and incubated for 1 hour. Then the cells expressing the human VR1 receptors were detached from the flask follow by washing with phosphate buffer saline, PBS(−) and re-suspended in assay buffer. The 80 tit of aliquot of cell suspension (3.75×10^5 cells/ml) was added to the assay plate and the cells were spun down by centrifuge (950 rpm, 20° C., 3 minutes).
The Acid-induced changes in the intracellular calcium concentration were monitored using FDSS 6000 (Hamamatsu Photonics, Japan), a fluorometric imaging system. The cell suspension in resting buffer (HBSS supplemented with 10 mM HEPES, pH 7.4) were pre-incubated with varying concentrations of the test compounds or resting buffer (buffer control) for 15 minutes at room temperature under the dark condition. The cells were automatically added the stimulating solution (HBSS supplemented with MES, final assay buffer pH5.8) by the FDSS 6000.
The Acid-induced changes in the intracellular calcium concentration were monitored using FDSS 6000 (Hamamatsu Photonics, Japan), a fluorometric imaging system. The cell suspension in resting buffer (HBSS supplemented with 10 mM HEPES, pH 7.4) was pre-incubated with varying concentrations of the test compounds or resting buffer (buffer control) for 15 minutes at room temperature under dark conditions. The cells were automatically added to the stimulating solution (HBSS supplemented with MES, final assay buffer pH5.8) by the FDSS 6000.
(In general: Calcium assays in cells follow changes in intracellular calcium, usually with a dye or a luminescent sensor.)
Regarding `Cc1cc([C@@H](C)NC(=O)c2ccc3nc(C(F)(F)F)cc(N4CC[C@@H](O)C4)c3c2)c(F)cc1NS(C)(=O)=O` [Example 90, 4-((R)-3-HYDROXYPYRROLIDIN-1-YL)-2-TRIFLUOROMETHYLQUINOLINE-6-CARBOXYLIC ACID [(R)-1-(2-FLUORO-4-METHANESULFONYLAMINO-5-METHYLPHENYL)ETHYL]AMIDE], the IC50 (as a rule, the concentration that inhibits the measured activity by half) turned out to be 112 nM.
Turning to `Cc1cc([C@@H](C)NC(=O)c2ccc3nc(C(F)(F)F)cc(N4CC[C@H](O)C4)c3c2)c(F)cc1NS(C)(=O)=O` [Example 91, 4-((S)-3-HYDROXY-PYRROLIDIN-1-YL)-2-TRIFLUOROMETHYLQUINOLINE-6-CARBOXYLIC ACID [(R)-1-(2-FLUORO-4-METHANESULFONYLAMINO-5-METHYLPHENYL)ETHYL]AMIDE], the IC50 came to 366 nM.
As to `Cc1cc([C@@H](C)NC(=O)c2ccc3nc(C(F)(F)F)cc(N4CC(F)(F)C4)c3c2)c(F)cc1NS(C)(=O)=O` [Example 92, 4-(3,3-DIFLUOROAZETIDIN-1-YL)-2-TRIFLUOROMETHYLQUINOLINE-6-CARBOXYLIC ACID [(R)-1-(2-FLUORO-4-METHANESULFONYLAMINO-5-METHYLPHENYL)-ETHYL]AMIDE], the IC50 amounted to 24 nM.
As for `Cc1cc([C@@H](C)NC(=O)c2ccc3nc(C(F)(F)F)cc(N4CCC[C@@H]4CO)c3c2)c(F)cc1NS(C)(=O)=O` [Example 93, 4-((R)-2-HYDROXYMETHYLPYRROLIDIN-1-YL)-2-TRIFLUOROMETHYLQUINOLINE-6-CARBOXYLIC ACID [(R)-1-(2-FLUORO-4-METHANESULFONYLAMINO-5-METHYLPHENYL)ETHYL]AMIDE], the figure is 370 nM.
With `Cc1cc([C@@H](C)NC(=O)c2ccc3nc(C(F)(F)F)cc(OC4CCOCC4)c3c2)c(F)cc1NS(C)(=O)=O` [Example 94, 4-(TETRAHYDRO-PYRAN-4-YLOXY)-2-TRIFLUOROMETHYL-QUINOLINE-6CARBOXYLIC ACID [(R)-1-(2-FLUORO-4-METHANESULFONYLAMINO-5-METHYL-PHENYL)-ETHYL]-AMIDE], the IC50 was found to be 35 nM.
The figure for `CCOC(=O)N1CCN(c2nc(C(F)(F)F)nc3ccc(C(=O)N[C@H](C)c4cc(C)c(NS(C)(=O)=O)cc4F)cc23)CC1` [Example 96, 4-{6-[(R)-1-(2-FLUORO-4-METHANESULFONYLAMINO-5-METHYL-PHENYL)-ETHYLCARBAMOYL]-2-TRIFLUOROMETHYL-QUINAZOLIN-4-YL}-PIPERAZINE-1-CARBOXYLIC ACID ETHYL ESTER] is 41 nM.
As for `Cc1cc([C@@H](C)NC(=O)c2ccc3nc(C(F)(F)F)cc(NC4CCCCC4)c3c2)c(F)cc1NS(C)(=O)=O` [Example 97, 4-CYCLOHEXYLAMINO-2-TRIFLUOROMETHYLQUINOLINE-6-CARBOXYLIC ACID [(R)-1-(2-FLUORO-4-METHANESULFONYLAMINO-5-METHYLPHENYL)ETHYL]AMIDE], the figure is 41 nM.
As for `Cc1cc([C@@H](C)NC(=O)c2ccc3nc(C(F)(F)F)cc(N4CCC(CO)CC4)c3c2)c(F)cc1NS(C)(=O)=O` [Example 99, 4-(4-HYDROXYMETHYL-PIPERIDIN-1-YL)-2-TRIFLUOROMETHYL-QUINOLINE-6-CARBOXYLIC ACID [(R)-1-(2-FLUORO-4-METHANESULFONYLAMINO-5-METHYL-PHENYL)-ETHYL]-AMIDE], the figure is 630 nM; as for `Cc1cc([C@@H](C)NC(=O)c2ccc3cc(C(C)(O)C(F)(F)F)ccc3c2)c(F)cc1NS(C)(=O)=O` (stereo partly shown) [Example 101], 41 nM; as for `Cc1cc([C@@H](C)NC(=O)c2ccc3cc(-n4cccn4)ccc3c2)c(F)cc1NS(C)(=O)=O` [Example 105, 6-PYRAZOL-1-YL-NAPHTHALENE-2-CARBOXYLIC ACID [(R)-1-(2-FLUORO-4-METHANESULFONYLAMINO-5-METHYL-PHENYL)-ETHYL]-AMIDE], 147 nM.
Regarding `Cc1cc([C@@H](C)NC(=O)c2ccc3nc(C(F)(F)F)nc(N4CCC(Cc5ccccc5)CC4)c3c2)c(F)cc1NS(C)(=O)=O` [Example 106, 4-(4-BENZYL-PIPERIDIN-1-YL)-2-TRIFLUOROMETHYL-QUINAZOLINE-6-CARBOXYLIC ACID [(R)-1-(2-FLUORO-4-METHANESULFONYLAMINO-5-METHYL-PHENYL)-ETHYL]-AMIDE], the IC50 came to 6 nM.
`COC1CCN(c2ccc3cc(C(=O)N[C@H](C)c4cc(C)c(NS(C)(=O)=O)cc4F)ccc3n2)CC1` [Example 107]: the IC50 came out at 337 nM.
As for `Cc1cc([C@@H](C)NC(=O)c2ccc3nc(C4(C)CC4)ccc3c2)c(F)cc1NS(C)(=O)=O` [Example 108, N-((1R)-1-{2-FLUORO-5-METHYL-4-[(METHYLSULFONYL)AMINO]PHENYL}ETHYL)-2-(1-METHYLCYCLOPROPYL)QUINOLINE-6-CARBOXAMIDE], the figure is 5 nM; as for `Cc1cc([C@@H](C)NC(=O)c2ccc3nc(N4CCC(F)(F)CC4)ccc3c2)c(F)cc1NS(C)(=O)=O` [Example 110, (R)-2-(4,4-DIFLUOROPIPERIDIN-1-YL)-N-(1-(2-FLUORO-5-METHYL-4-(METHYLSULFONAMIDO)PHENYL)ETHYL)QUINOLINE-6-CARBOXAMIDE], 94 nM; as for `Cc1cc([C@@H](C)NC(=O)c2ccc3nc(C(F)(F)F)nc(N4CCOCC4)c3c2)c(F)cc1NS(C)(=O)=O` [Example 112, 4-MORPHOLIN-4-YL-2-TRIFLUOROMETHYL-QUINAZOLINE-6-CARBOXYLIC ACID [(R)-1-(2-FLUORO-4-METHANESULFONYLAMINO-5-METHYL-PHENYL)-ETHYL]-AMIDE], 33 nM.
With `Cc1cc([C@@H](C)NC(=O)c2ccc3nc(N4CCC(C)(C)CC4)ccc3c2)c(F)cc1NS(C)(=O)=O` [Example 113], the IC50 amounted to 149 nM.

Values taken from patent US20120088746A1, “AMIDE DERIVATIVES AS ION-CHANNEL LIGANDS AND PHARMACEUTICAL COMPOSITIONS AND METHODS OF USING THE SAME” (PFIZER INC., priority 2006, published 2012).
